For orientation: Cmax means the peak of the concentration-time curve.

Series [1] deals with patients with advanced solid tumors. The series can be described thus: Phase I dose escalation: MTD and DLT of flavopiridol with FOLFIRI. It counts as in vivo, human.
The nature of series [2]: Flavopiridol plasma pharmacokinetics. It counts as in vivo. The following applies: human, intravenous.
Series [3] deals with patients with refractory colorectal cancer. Conditions: combined with irinotecan at 125 mg/m^2 given weekly for 4 of every 6 weeks; cited from earlier work.
The test system of series [4] is melanoma. The following applies: single agent; 16 patients; cited from earlier work.
The mark [5] stands for this setting: in combination with flavopiridol.
The mark [6] stands for this setting: split-dose schedule (MTD2): 30-min bolus followed by 4-h infusion.

Consider `Nc1nc2c(c(=O)[nH]1)N(C=O)C(CNc1ccc(C(=O)N[C@@H](CCC(=O)O)C(=O)O)cc1)CN2` (some centres unmarked) [LV, leucovorin], for which, in series [1] (setting [5]), the “established MTD (FOLFIRI component)” value stood at 400 mg/m^2.

As for `CCc1c2c(nc3ccc(OC(=O)N4CCC(N5CCCCC5)CC4)cc13)-c1cc3c(c(=O)n1C2)COC(=O)[C@]3(O)CC` [irinotecan], in series [1] (setting [5]), the “established MTD (FOLFIRI component)” value came out at 180 mg/m^2.

In the case of `CN1CC[C@H](c2c(O)cc(O)c3c(=O)cc(-c4ccccc4Cl)oc23)[C@H](O)C1` [flavopiridol, Flavopiridol], the Cmax in series [2] (Cmax, at MTDs, patients who experienced DLT) was found to be 3.48 µM. Further, the peak level in series [2] (Mean Cmax, cycle 1, cohort 9: flavopiridol 80 mg/m^2, irinotecan 180 mg/m^2, n 6) (Cmax) was 2.69 µM. Also, the MTD of flavopiridol in series [3] is 50 mg/m^2. Moreover, the “MTD with FOLFIRI” value in series [1] (flavopiridol over 1 h (bolus schedule, cohort 9, MTD1), every 2 weeks) is 80 mg/m^2. Moreover, in series [1] (setting [6]), the “MTD with FOLFIRI, bolus part” value turned out to be 35 mg/m^2 and the “MTD with FOLFIRI, part over 4 h” value was found to be 35 mg/m^2. The objective responses entry in series [4] is “no objective responses”.

With `O=c1[nH]cc(F)c(=O)[nH]1` [5FU, fluorouracil], in series [1] (setting [5]), the “established MTD (FOLFIRI component), bolus” value was found to be 400 mg/m^2 and the “established MTD (FOLFIRI component), over 48 h” value was 2,400 mg/m^2.

The values above are taken from paper PMC2957673 (Cancer chemotherapy and pharmacology, 2010).
